Results: patent publication US10815230B2, “Casein kinase 1 delta inhibitor” (ELECTROPHORETICS LIMITED, priority 2015, dated 2020)

Legend:
Settings in all cases: read-out: % Ctrl @ 10000 nM
[1] = biological target: ACVRL1 (Homo sapiens, UniProt P37023); assay: KINOMEscan binding assay
[2] = biological target: AKT1 (Homo sapiens, UniProt P31749); assay: KINOMEscan binding assay
[3] = biological target: AKT2 (Homo sapiens, UniProt P31751); assay: KINOMEscan binding assay
[4] = biological target: BLK (Homo sapiens, UniProt P51451); assay: KINOMEscan binding assay
[5] = biological target: CAMKK1 (Homo sapiens, UniProt Q8N5S9); assay: KINOMEscan binding assay
[6] = biological target: CLK1 (Homo sapiens, UniProt P49759); assay: KINOMEscan binding assay
[7] = biological target: CSNK1D (Homo sapiens, UniProt P48730); assay: KINOMEscan binding assay
[8] = biological target: CSNK2A2 (Homo sapiens, UniProt P19784); assay: KINOMEscan binding assay
[9] = biological target: DRAK2 (Homo sapiens, UniProt O94768); assay: KINOMEscan binding assay
[10] = biological target: EGFR (G719S) (Homo sapiens, UniProt P00533, G719S); assay: KINOMEscan binding assay
[11] = biological target: EGFR (L858R) (Homo sapiens, UniProt P00533, L858R); assay: KINOMEscan binding assay
[12] = biological target: ERBB3 (Homo sapiens, UniProt P21860); assay: KINOMEscan binding assay
[13] = biological target: ERK3 (Homo sapiens, UniProt Q16659); assay: KINOMEscan binding assay
[14] = biological target: ERK4 (Homo sapiens, UniProt P31152); assay: KINOMEscan binding assay
[15] = biological target: FER (Homo sapiens, UniProt P16591); assay: KINOMEscan binding assay
[16] = biological target: GRK7 (Homo sapiens, UniProt Q8WTQ7); assay: KINOMEscan binding assay
[17] = biological target: ICK (Homo sapiens, UniProt Q9UPZ9); assay: KINOMEscan binding assay
[18] = biological target: JNK3 (Homo sapiens, UniProt P53779); assay: KINOMEscan binding assay
[19] = biological target: KIT (V559D, V654A) (Homo sapiens, UniProt P10721, V559D/V654A); assay: KINOMEscan binding assay
[20] = biological target: T1, LRRK2 (G2019S) (Homo sapiens, UniProt Q5S007, G2019S); assay: KINOMEscan binding assay
T1 construct: T7 phage fusion (most assays) or DNA label after HEK293 expression; purchased DiscoveRx (KINOMEscan, LeadHunter Discovery services); host or cells: T7 phage in E. coli (BL21-derived) or HEK293

[21] = biological target: MARK3 (Homo sapiens, UniProt P27448); assay: KINOMEscan binding assay
[22] = biological target: MARK4 (Homo sapiens, UniProt Q96L34); assay: KINOMEscan binding assay
[23] = biological target: MKNK1 (Homo sapiens, UniProt Q9BUB5); assay: KINOMEscan binding assay
[24] = biological target: MLK2 (Homo sapiens, UniProt Q02779); assay: KINOMEscan binding assay
[25] = biological target: MYO3B (Homo sapiens, UniProt Q8WXR4); assay: KINOMEscan binding assay
[26] = biological target: NDR1 (Homo sapiens, UniProt Q15208); assay: KINOMEscan binding assay
[27] = biological target: PAK3 (Homo sapiens, UniProt O75914); assay: KINOMEscan binding assay
[28] = biological target: PDGFRB (Homo sapiens, UniProt P09619); assay: KINOMEscan binding assay
[29] = biological target: PHKG2 (Homo sapiens, UniProt P15735); assay: KINOMEscan binding assay
[30] = biological target: PIK3CA (E542K) (Homo sapiens, UniProt P42336, E542K); assay: KINOMEscan binding assay
[31] = biological target: PIP5K2C (Homo sapiens, UniProt Q8TBX8); assay: KINOMEscan binding assay
[32] = biological target: PKNB M. tuberculosis (Mycobacterium tuberculosis, UniProt P9WI81); assay: biochemical; type: binding
[33] = biological target: PLK3 (Homo sapiens, UniProt Q9H4B4); assay: KINOMEscan binding assay
[34] = biological target: RET (V804M) (Homo sapiens, UniProt P07949, V804M); assay: KINOMEscan binding assay
[35] = biological target: RIOK2 (Homo sapiens, UniProt Q9BVS4); assay: KINOMEscan binding assay
[36] = biological target: RIPK5 (Homo sapiens, UniProt Q6XUX3); assay: KINOMEscan binding assay
[37] = biological target: SgK110 (Homo sapiens, UniProt P0C264); assay: KINOMEscan binding assay
[38] = biological target: SRPK3 (Homo sapiens, UniProt Q9UPE1); assay: KINOMEscan binding assay
[39] = biological target: TESK1 (Homo sapiens, UniProt Q15569); assay: KINOMEscan binding assay
[40] = biological target: TIE2 (Homo sapiens, UniProt Q02763); assay: KINOMEscan binding assay
[41] = biological target: T2, ULK2 (Homo sapiens, UniProt Q8IYT8); assay: KINOMEscan binding assay
T2 construct: purchased DiscoveRx (KINOMEscan, LeadHunter Discovery services)

Sequence of CSNK2A2 (P19784 whole entry): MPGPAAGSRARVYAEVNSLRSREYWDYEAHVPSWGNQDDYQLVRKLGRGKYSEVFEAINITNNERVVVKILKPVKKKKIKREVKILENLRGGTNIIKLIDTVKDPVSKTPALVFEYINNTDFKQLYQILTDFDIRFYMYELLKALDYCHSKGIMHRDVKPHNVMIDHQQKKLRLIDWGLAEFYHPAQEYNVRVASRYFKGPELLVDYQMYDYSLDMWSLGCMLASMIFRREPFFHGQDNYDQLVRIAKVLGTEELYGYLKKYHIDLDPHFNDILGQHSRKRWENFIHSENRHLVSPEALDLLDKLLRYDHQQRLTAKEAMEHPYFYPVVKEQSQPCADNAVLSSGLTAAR
Sequence of PIK3CA (E542K) (P42336 whole entry E542K): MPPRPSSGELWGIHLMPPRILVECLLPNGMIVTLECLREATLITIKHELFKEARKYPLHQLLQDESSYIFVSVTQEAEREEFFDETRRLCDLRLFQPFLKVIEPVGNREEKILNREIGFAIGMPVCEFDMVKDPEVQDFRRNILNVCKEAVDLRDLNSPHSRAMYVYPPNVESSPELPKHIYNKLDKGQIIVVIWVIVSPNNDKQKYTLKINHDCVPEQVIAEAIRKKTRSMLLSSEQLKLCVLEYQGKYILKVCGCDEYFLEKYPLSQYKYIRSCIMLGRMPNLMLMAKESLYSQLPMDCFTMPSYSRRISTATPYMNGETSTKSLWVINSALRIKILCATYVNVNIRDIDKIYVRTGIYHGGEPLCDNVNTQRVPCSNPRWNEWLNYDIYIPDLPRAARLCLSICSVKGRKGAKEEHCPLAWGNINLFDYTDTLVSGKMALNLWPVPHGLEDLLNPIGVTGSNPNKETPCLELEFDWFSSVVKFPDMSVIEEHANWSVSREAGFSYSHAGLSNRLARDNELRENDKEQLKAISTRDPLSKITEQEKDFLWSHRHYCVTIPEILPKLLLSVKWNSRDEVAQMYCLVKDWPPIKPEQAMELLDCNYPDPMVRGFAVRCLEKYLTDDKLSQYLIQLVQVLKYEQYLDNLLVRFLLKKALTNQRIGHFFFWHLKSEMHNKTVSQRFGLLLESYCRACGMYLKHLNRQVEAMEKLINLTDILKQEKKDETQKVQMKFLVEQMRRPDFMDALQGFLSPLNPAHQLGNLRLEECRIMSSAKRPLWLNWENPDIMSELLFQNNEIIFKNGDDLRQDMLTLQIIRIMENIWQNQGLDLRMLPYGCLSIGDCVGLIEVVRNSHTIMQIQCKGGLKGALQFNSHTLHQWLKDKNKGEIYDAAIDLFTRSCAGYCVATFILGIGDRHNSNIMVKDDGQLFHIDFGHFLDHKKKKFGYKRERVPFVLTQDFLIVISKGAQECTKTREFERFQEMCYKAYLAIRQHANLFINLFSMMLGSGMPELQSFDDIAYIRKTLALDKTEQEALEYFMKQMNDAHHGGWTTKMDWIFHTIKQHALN
Sequence of SRPK3 (Q9UPE1 whole entry): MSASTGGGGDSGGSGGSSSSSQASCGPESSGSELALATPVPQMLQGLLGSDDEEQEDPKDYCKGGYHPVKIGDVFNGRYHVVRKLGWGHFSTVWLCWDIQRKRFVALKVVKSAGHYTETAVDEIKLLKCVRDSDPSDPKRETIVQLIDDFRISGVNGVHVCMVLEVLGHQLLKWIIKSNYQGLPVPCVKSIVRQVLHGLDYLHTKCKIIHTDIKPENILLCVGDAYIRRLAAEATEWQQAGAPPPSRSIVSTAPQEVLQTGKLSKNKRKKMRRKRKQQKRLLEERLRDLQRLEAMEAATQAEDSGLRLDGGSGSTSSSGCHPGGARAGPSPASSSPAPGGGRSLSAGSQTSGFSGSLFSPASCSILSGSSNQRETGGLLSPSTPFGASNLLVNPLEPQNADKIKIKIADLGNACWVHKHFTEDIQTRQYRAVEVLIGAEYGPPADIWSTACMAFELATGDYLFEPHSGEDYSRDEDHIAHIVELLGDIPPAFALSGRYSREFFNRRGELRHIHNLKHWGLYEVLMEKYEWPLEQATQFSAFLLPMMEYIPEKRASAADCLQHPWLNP
Sequence of TIE2 (Q02763 23-1124): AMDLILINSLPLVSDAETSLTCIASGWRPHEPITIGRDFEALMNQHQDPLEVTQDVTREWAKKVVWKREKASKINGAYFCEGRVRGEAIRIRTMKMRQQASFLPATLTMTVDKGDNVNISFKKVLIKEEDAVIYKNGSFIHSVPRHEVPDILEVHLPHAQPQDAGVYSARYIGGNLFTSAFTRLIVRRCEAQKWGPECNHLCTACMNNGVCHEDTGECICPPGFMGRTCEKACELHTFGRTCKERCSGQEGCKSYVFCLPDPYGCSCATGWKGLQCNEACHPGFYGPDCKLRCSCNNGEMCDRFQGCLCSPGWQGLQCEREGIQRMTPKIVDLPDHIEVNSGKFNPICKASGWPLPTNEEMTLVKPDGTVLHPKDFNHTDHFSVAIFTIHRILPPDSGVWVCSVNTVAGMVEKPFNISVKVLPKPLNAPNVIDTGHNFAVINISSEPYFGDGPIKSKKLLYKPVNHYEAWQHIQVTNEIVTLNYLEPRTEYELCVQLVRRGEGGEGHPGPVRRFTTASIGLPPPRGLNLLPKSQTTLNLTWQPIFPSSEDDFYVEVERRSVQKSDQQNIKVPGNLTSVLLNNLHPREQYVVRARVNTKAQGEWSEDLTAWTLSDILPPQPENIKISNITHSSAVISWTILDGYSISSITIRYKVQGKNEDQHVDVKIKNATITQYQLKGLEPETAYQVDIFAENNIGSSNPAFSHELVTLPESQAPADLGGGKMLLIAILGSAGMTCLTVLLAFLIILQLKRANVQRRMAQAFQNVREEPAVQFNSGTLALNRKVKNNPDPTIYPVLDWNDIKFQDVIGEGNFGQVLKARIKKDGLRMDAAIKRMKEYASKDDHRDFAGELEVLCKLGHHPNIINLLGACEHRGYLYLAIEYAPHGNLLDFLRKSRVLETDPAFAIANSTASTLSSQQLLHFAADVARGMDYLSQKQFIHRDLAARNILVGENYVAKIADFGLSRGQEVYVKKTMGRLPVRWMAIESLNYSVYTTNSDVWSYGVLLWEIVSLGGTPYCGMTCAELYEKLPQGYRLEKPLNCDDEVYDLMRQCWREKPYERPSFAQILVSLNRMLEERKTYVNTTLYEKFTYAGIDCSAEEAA
Sequence of ICK (Q9UPZ9 whole entry): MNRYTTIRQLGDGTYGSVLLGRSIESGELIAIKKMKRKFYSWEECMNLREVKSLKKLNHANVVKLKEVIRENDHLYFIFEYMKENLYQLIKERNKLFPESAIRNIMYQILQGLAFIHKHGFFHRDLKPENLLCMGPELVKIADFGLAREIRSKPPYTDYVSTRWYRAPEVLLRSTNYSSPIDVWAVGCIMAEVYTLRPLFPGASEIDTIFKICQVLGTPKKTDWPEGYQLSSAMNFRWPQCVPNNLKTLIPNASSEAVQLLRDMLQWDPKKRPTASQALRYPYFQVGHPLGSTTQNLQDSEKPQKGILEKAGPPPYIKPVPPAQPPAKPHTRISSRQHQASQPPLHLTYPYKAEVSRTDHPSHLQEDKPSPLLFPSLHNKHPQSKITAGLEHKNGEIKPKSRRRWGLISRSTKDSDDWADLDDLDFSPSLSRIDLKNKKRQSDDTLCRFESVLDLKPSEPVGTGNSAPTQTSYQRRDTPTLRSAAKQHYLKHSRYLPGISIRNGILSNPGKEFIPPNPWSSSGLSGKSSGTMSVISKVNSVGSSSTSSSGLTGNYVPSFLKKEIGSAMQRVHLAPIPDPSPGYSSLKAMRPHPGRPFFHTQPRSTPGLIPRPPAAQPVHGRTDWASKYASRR
Sequence of FER (P16591 whole entry): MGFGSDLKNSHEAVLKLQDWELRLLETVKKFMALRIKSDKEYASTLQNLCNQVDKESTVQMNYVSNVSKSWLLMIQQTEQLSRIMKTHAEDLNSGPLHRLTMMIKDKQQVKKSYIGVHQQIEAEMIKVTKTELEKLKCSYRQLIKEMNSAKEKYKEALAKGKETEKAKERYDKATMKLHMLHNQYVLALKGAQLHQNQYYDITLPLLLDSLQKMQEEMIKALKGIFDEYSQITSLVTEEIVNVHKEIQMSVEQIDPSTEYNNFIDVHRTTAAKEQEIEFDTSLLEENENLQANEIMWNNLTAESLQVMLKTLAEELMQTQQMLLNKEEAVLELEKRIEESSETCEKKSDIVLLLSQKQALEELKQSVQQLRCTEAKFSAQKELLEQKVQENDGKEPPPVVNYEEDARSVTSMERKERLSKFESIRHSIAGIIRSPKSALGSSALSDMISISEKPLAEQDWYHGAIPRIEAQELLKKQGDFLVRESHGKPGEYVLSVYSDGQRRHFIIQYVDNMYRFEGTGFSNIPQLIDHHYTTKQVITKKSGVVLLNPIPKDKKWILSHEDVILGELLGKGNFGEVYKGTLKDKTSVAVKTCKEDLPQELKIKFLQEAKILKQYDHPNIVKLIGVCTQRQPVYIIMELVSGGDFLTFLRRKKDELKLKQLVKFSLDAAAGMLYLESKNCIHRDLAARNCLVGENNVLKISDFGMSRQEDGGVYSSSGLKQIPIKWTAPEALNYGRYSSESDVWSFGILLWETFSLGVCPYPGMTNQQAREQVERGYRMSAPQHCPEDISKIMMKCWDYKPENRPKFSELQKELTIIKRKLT
Sequence of MKNK1 (Q9BUB5 whole entry): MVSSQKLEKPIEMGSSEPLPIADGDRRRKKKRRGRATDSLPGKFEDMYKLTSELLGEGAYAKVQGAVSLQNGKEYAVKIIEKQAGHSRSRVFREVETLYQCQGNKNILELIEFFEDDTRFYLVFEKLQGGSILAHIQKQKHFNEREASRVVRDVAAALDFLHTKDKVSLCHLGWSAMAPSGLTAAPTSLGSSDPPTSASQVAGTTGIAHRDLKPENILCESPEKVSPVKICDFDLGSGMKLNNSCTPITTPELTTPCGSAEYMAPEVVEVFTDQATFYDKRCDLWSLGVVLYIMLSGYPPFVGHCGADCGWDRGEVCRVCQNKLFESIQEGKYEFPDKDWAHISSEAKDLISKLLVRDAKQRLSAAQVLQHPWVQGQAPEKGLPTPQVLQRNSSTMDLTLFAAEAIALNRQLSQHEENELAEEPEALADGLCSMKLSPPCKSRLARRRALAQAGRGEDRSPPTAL

Nc1ncc(-c2nc3ccccc3o2)c(-c2ccncc2)n1 [Comparative Compound 324, 5-(1,3-benzoxazol-2-yl)-4-(pyridine-4-yl)pyrimidin-2-amine]
remaining binding at 10 µM [1]: 100% | remaining binding at 10 µM [2]: 96% | remaining binding at 10 µM [3]: 100% | remaining binding at 10 µM [4]: 80% | remaining binding at 10 µM [5]: 100% | remaining binding at 10 µM [6]: 80% | remaining binding at 10 µM [7]: 3.8% | remaining binding at 10 µM [8]: 79% | remaining binding at 10 µM [9]: 87% | remaining binding at 10 µM [10]: 63% | remaining binding at 10 µM [11]: 76% | remaining binding at 10 µM [12]: 92% | remaining binding at 10 µM [13]: 100% | remaining binding at 10 µM [14]: 90% | remaining binding at 10 µM [15]: 100% | remaining binding at 10 µM [16]: 91% | remaining binding at 10 µM [17]: 99% | remaining binding at 10 µM [18]: 6% | remaining binding at 10 µM [19]: 79% | remaining binding at 10 µM [20]: 76% | remaining binding at 10 µM [21]: 100% | remaining binding at 10 µM [22]: 100% | remaining binding at 10 µM [23]: 96% | remaining binding at 10 µM [24]: 100% | remaining binding at 10 µM [25]: 100% | remaining binding at 10 µM [26]: 73% | remaining binding at 10 µM [27]: 95% | remaining binding at 10 µM [28]: 90% | remaining binding at 10 µM [29]: 100% | remaining binding at 10 µM [30]: 98% | remaining binding at 10 µM [31]: 72% | remaining activity at 10 µM [32]: 74% | remaining binding at 10 µM [33]: 99% | remaining binding at 10 µM [34]: 100% | remaining binding at 10 µM [35]: 87% | remaining binding at 10 µM [36]: 96% | remaining binding at 10 µM [37]: 94% | remaining binding at 10 µM [38]: 99% | remaining binding at 10 µM [39]: 88% | remaining binding at 10 µM [40]: 98% | remaining binding at 10 µM [41]: 100%

CNc1c(C(N)=O)c2ccccn2c1C(=O)c1ccc(F)cc1 [Compound A, 2-methyl-amino-3-[(4-fluorophenyl)carbonyl]indolizine-1-carboxamide]
remaining binding at 10 µM [1]: 100% | remaining binding at 10 µM [2]: 91% | remaining binding at 10 µM [3]: 98% | remaining binding at 10 µM [4]: 49% | remaining binding at 10 µM [5]: 89% | remaining binding at 10 µM [6]: 67% | remaining binding at 10 µM [7]: 1.4% | remaining binding at 10 µM [8]: 93% | remaining binding at 10 µM [9]: 87% | remaining binding at 10 µM [10]: 24% | remaining binding at 10 µM [11]: 25% | remaining binding at 10 µM [12]: 62% | remaining binding at 10 µM [13]: 88% | remaining binding at 10 µM [14]: 78% | remaining binding at 10 µM [15]: 98% | remaining binding at 10 µM [16]: 65% | remaining binding at 10 µM [17]: 93% | remaining binding at 10 µM [18]: 48% | remaining binding at 10 µM [19]: 16% | remaining binding at 10 µM [20]: 86% | remaining binding at 10 µM [21]: 88% | remaining binding at 10 µM [22]: 100% | remaining binding at 10 µM [23]: 100% | remaining binding at 10 µM [24]: 91% | remaining binding at 10 µM [25]: 100% | remaining binding at 10 µM [26]: 74% | remaining binding at 10 µM [27]: 75% | remaining binding at 10 µM [28]: 45% | remaining binding at 10 µM [29]: 91% | remaining binding at 10 µM [30]: 90% | remaining binding at 10 µM [31]: 79% | remaining activity at 10 µM [32]: 86% | remaining binding at 10 µM [33]: 85% | remaining binding at 10 µM [34]: 100% | remaining binding at 10 µM [35]: 66% | remaining binding at 10 µM [36]: 79% | remaining binding at 10 µM [37]: 92% | remaining binding at 10 µM [38]: 92% | remaining binding at 10 µM [39]: 90% | remaining binding at 10 µM [40]: 100% | remaining binding at 10 µM [41]: 95%
